{
  "source": "patent US9255073B2",
  "about": "“1-benzyl-3-hydroxymethylindazole derivatives and use thereof in the treatment of diseases based on the expression of MCP-1, CX3CR1 and p40” (AZIENDE CHIM. RIUN. ANG. FRANC. A.C.R.A.F. S.p.A., priority 2008, dated 2016)",
  "key": {"MCP-1 [1]": {"test_system": "MCP-1", "assay": "Production of MCP-1 protein by LPS-stimulated MonoMac6 cells (ELISA)", "assay_type": "cell-based", "conditions": "Homo sapiens, MONO-MAC-6, MonoMac6, 1 h preincubation, LPS 100 ng/ml 20 h, ELISA of supernatant; for inhibition at 75 µM: 75 μM (maximum soluble concentration); for inhibition at 30 µM: 30 μM (maximum soluble concentration); for inhibition at 150 µM: 150 μM (maximum soluble concentration)", "description": "(§1) The capacity of the compounds to inhibit the expression of the protein MCP-1 by lipopolysaccharide (LPS)-stimulated MonoMac6 cells was evaluated. The cells were placed in 96-well plates at a concentration of 50 000 cells/well. The compounds were tested at the maximum soluble concentration given in Table 2 (in the range 30-300 μM) and incubated for 1 hour. The cells were then stimulated with LPS (100 ng/ml) for 20 hours.\nThe amount of MCP-1 produced was measured in the supernatants, suitably diluted with buffer, by means of an immunoenzymatic test (ELISA) using a commercial kit (ELISA MCP-1/JE, R&D Systems)."}, "CX3CR1": {"test_system": "CX3CR1", "assay": "Gene expression of CX3CR1 in LPS-stimulated MonoMac6 cells (real-time RT-PCR)", "assay_type": "cell-based, human", "conditions": "MonoMac6, 1 h preincubation, LPS 100 ng/ml 20 h", "description": "as §1, with “of CX3CR1” for “of the protein MCP-1”, “Table 3” for “Table 2”\n(§2) The total RNA was extracted from the cell pellet using the RNeasy mini kit (Qiagen), reverse-transcribed with the TaqMan Reverse transcription reagents synthesis kit (Applied Biosystems) and the cDNA obtained was used for the real-time PCR reaction. The amplification was obtained in 96-well plates using the ABI Prism 7000 sequence detection system (Applied Biosystems), by applying the following temperature profile: 50° C. for 2 minutes, 95° C. for 10 minutes and 45 cycles at 95° C. for 15 seconds and 60° C. for 1 minute. For the amplification, a set of primers and probe specific for human CX3CR1 was used (Applied Biosystems, RefSeq NM_001337.3). A set of primers and probe for β-actin was used in separate wells as an internal control of the samples for the purposes of normalization. Once the reaction had taken place, the fluorescence data were analysed using the ABI Prism 7000 SDS software, by calculating the threshold cycle (Ct) for each sample and subsequently performing a relative quantification via the ΔΔCt method."}, "p40": {"test_system": "p40", "assay": "Gene expression of p40 in LPS-stimulated MonoMac6 cells (real-time RT-PCR)", "assay_type": "cell-based, human", "conditions": "MonoMac6, 1 h preincubation, LPS 100 ng/ml 4 h", "description": "as §1, with “p40” for “the protein MCP-1”, “4” for “2”, “4” for “20”\nas §2, with “p40” for “CX3CR1”, “NM_002187.2).” for “NM_001337.3).”"}, "MCP-1 [2]": {"test_system": "MCP-1", "assay": "Gene expression of MCP-1 in LPS-stimulated MonoMac6 cells (real-time RT-PCR)", "assay_type": "cell-based, human", "conditions": "MonoMac6, 1 h preincubation, LPS 100 ng/ml 4 h", "description": "as §1, with “of” for “of the protein”, “1” for “2”, “4” for “20”\nas §2, with “MCP-1” for “CX3CR1”, “NM_002982.3).” for “NM_001337.3).”"}, "[3]": {"conditions": "30 μM (maximum soluble concentration)"}, "[4]": {"conditions": "150 μM (maximum soluble concentration)"}, "[5]": {"conditions": "300 μM (maximum soluble concentration)"}},
  "note": "Where a name gives a salt, the structure may show the parent alone.",
  "data": [
    {"smiles": "COc1ccc(Cn2nc(CO)c3ccccc32)cc1", "note": "[Compound 2, [1-(4-methoxybenzyl)-1H-indazol-3-yl]methanol]", "values": [
      {"measurement": "melting point", "value": "95 to 97", "unit": "°C"}
    ]},
    {"smiles": "CN(C)CCCOCc1nn(Cc2ccccc2)c2ccccc12", "note": "[Compound 15, 3-[(1-benzyl-1H-indazol-3-yl)methoxy]-N,N-dimethylpropan-1-amine hydrochloride]", "values": [
      {"measurement": "inhibition at 75 µM", "setting": "MCP-1 [1]", "value": 44, "unit": "%"}
    ]},
    {"smiles": "Cc1cc(Cl)ccc1Cn1nc(C(C)(C)O)c2ccccc21", "note": "[Compound 10, 2-[1-(4-chloro-2-methylbenzyl)-1H-indazol-3-yl]propan-2-ol]", "values": [
      {"measurement": "melting point", "value": "72 to 74", "unit": "°C"},
      {"measurement": "% inhibition of CX3CR1 expression (mRNA)", "setting": "CX3CR1; [3]", "value": 89, "unit": "%"},
      {"measurement": "% inhibition of p40 expression (mRNA)", "setting": "p40; [3]", "value": 65, "unit": "%"},
      {"measurement": "% inhibition of MCP-1 expression (mRNA)", "setting": "MCP-1 [2]; [3]", "value": 72, "unit": "%"},
      {"measurement": "inhibition at 30 µM", "setting": "MCP-1 [1]", "value": 81, "unit": "%"}
    ]},
    {"smiles": "CC(C)(CN1CCOCC1)OCc1nn(Cc2ccccc2)c2ccccc12.O=C(O)/C=C\\C(=O)O", "note": "[Compound 18, 1-benzyl-3-[(1,1-dimethyl-2-morpholin-4-ylethoxy)methyl]-1H-indazole maleate]", "values": [
      {"measurement": "melting point", "value": "87 to 88", "unit": "°C"},
      {"measurement": "% inhibition of p40 expression (mRNA)", "setting": "p40; 75 μM (maximum soluble concentration)", "value": 39, "unit": "%"},
      {"measurement": "inhibition at 75 µM", "setting": "MCP-1 [1]", "value": 85, "unit": "%"}
    ]},
    {"smiles": "COc1ccc2c(c1)c(CO)nn2Cc1ccccc1", "note": "[Compound 9, (1-benzyl-5-methoxy-1H-indazol-3-yl)methanol]", "values": [
      {"measurement": "melting point", "value": "97 to 98", "unit": "°C"}
    ]},
    {"smiles": "Cc1cc(Cl)ccc1Cn1nc(CO)c2ccccc21", "note": "[Compound 8, [1-(4-chloro-2-methylbenzyl)-1H-indazol-3-yl]methanol]", "values": [
      {"measurement": "inhibition at 30 µM", "setting": "MCP-1 [1]", "value": 75, "unit": "%"}
    ]},
    {"smiles": "OCc1nn(Cc2ccc(Cl)cc2)c2ccccc12", "note": "[Compound 4, [1-(4-chlorobenzyl)-1H-indazol-3-yl]methanol]", "values": [
      {"measurement": "inhibition at 75 µM", "setting": "MCP-1 [1]", "value": 85, "unit": "%"}
    ]},
    {"smiles": "CC(C)(CO)OCc1nn(Cc2ccccc2)c2ccccc12", "note": "[Compound 17, 2-[(1-benzyl-1H-indazol-3-yl)methoxy]-2-methylpropan-1-ol]", "values": [
      {"measurement": "melting point", "value": "52 to 53", "unit": "°C"},
      {"measurement": "% inhibition of CX3CR1 expression (mRNA)", "setting": "CX3CR1; [4]", "value": 88, "unit": "%"},
      {"measurement": "% inhibition of p40 expression (mRNA)", "setting": "p40; [4]", "value": 37, "unit": "%"},
      {"measurement": "% inhibition of MCP-1 expression (mRNA)", "setting": "MCP-1 [2]; [4]", "value": 53, "unit": "%"},
      {"measurement": "inhibition at 150 µM", "setting": "MCP-1 [1]", "value": 82, "unit": "%"}
    ]},
    {"smiles": "Cc1cc(Cl)ccc1Cn1nc(C(C)O)c2ccccc21", "note": "(centres unmarked) [Compound 12, 1-[1-(4-chloro-2-methylbenzyl)-1H-indazol-3-yl]ethanol]", "values": [
      {"measurement": "inhibition at 30 µM", "setting": "MCP-1 [1]", "value": 76, "unit": "%"}
    ]},
    {"smiles": "CC(C)(O)c1nn(Cc2ccc(Cl)cc2Cl)c2ccccc12", "note": "[Compound 11, 2-[1-(2,4-dichlorobenzyl)-1H-indazol-3-yl]propan-2-ol]", "values": [
      {"measurement": "inhibition at 30 µM", "setting": "MCP-1 [1]", "value": 88, "unit": "%"}
    ]},
    {"smiles": "OCc1nn(Cc2ccccc2)c2ccccc12", "note": "[Compound 1, 1-benzyl-3-hydroxymethyl-indazole]", "values": [
      {"measurement": "% inhibition of CX3CR1 expression (mRNA)", "setting": "CX3CR1; [4]", "value": 72, "unit": "%"},
      {"measurement": "% inhibition of p40 expression (mRNA)", "setting": "p40; [4]", "value": 32, "unit": "%"},
      {"measurement": "% inhibition of MCP-1 expression (mRNA)", "setting": "MCP-1 [2]; [4]", "value": 30, "unit": "%"},
      {"measurement": "inhibition at 150 µM", "setting": "MCP-1 [1]", "value": 54, "unit": "%"}
    ]},
    {"smiles": "OCc1nn(Cc2ccc(Cl)cc2Cl)c2ccccc12", "note": "[Compound 6, [1-(2,4-dichlorobenzyl)-1H-indazol-3-yl]methanol]", "values": [
      {"measurement": "inhibition at 30 µM", "setting": "MCP-1 [1]", "value": 54, "unit": "%"}
    ]},
    {"smiles": "CN(C)CCOCc1nn(Cc2ccccc2)c2ccccc12.Cl", "note": "[Compound 14, 2-[(1-benzyl-1H-indazol-3-yl)methoxy]-N,N-dimethylethanamine hydrochloride]", "values": [
      {"measurement": "% inhibition of CX3CR1 expression (mRNA)", "setting": "CX3CR1; [4]", "value": 96, "unit": "%"},
      {"measurement": "% inhibition of MCP-1 expression (mRNA)", "setting": "MCP-1 [2]; [4]", "value": 52, "unit": "%"},
      {"measurement": "inhibition at 150 µM", "setting": "MCP-1 [1]", "value": 64, "unit": "%"}
    ]},
    {"smiles": "OCCOCc1nn(Cc2ccccc2)c2ccccc12", "note": "[Compound 13, 2-[(1-benzyl-1H-indazol-3-yl)methoxy]ethanol]", "values": [
      {"measurement": "melting point", "value": "67 to 69", "unit": "°C"},
      {"measurement": "% inhibition of CX3CR1 expression (mRNA)", "setting": "CX3CR1; [5]", "value": 90, "unit": "%"},
      {"measurement": "% inhibition of MCP-1 expression (mRNA)", "setting": "MCP-1 [2]; [5]", "value": 55, "unit": "%"},
      {"measurement": "inhibition at 300 µM", "setting": "MCP-1 [1]; [5]", "value": 78, "unit": "%"}
    ]}
  ]
}
